Test results as given in patent US20210330611A1, “THERAPY FOR NEUROLOGICAL DISEASES/DISORDERS” (priority 2020, published 2021).
Structures can show the parent of a compound that is named as a salt. Where two headings read alike, the source gives them in different places.

Columns and labels:
primary rat microglia [1] = test system: primary rat microglia;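 on Fibrin % cell toxicity: share of dead cells sized under 150 µm2 at 10 µM in fibrin-stimulated microglia HTS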
[2] = test system: LPS-induced microglia activation; test: Image-based assay of LPS-induced microglia activation (HTS and dose response); format: cell-based, rat; conditions: for inhibition at 10 µM: read-out: LPS % inhibition
primary rat microglia [3] = test system: primary rat microglia; remark: listed apart in the source;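 on Fibrin % cell toxicity: share of dead cells sized under 150 µm2 at 10 µM in fibrin-stimulated microglia HTS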
[4] = test system: fibrin-induced microglia activation; test: Image-based assay of fibrin-induced microglia activation (HTS and dose response); format: cell-based, rat; conditions: for inhibition at 10 µM: read-out: Fibrin % inhibition
[5] = test system: fibrin- and LPS-induced microglia activation; test: cells; format: cell-based, rat
[6] = Rattus norvegicus, Microglia, 48 h, primary microglia HTS, LPS stimulation, increased cell size (>800 μm^2) as marker of activation
[7] = Rattus norvegicus, Microglia, primary microglia HTS, fibrin stimulation, increased cell size (>800 μm^2) as marker of activation
[8] = quadrant by fibrin and LPS inhibition in HTS of 1907 compounds
[9] = Rattus norvegicus, Microglia, 48 h
[10] = Rattus norvegicus, Microglia, primary microglia HTS, fibrin stimulation, cell size >800 μm2 as marker of activation
[11] = classification by fibrin and LPS inhibition in HTS
[12] = HTS of 1907 compounds, quadrant by fibrin and LPS inhibition
[13] = Rattus norvegicus, Microglia, primary microglia HTS, LPS stimulation, compounds at 10 μM
[14] = Rattus norvegicus, Microglia, primary microglia HTS, fibrin stimulation, compounds at 10 μM
[15] = quadrant by fibrin and LPS inhibition, HTS at 10 μM

Structure (SMILES): CNCC[C@H](Oc1cccc2ccccc12)c1cccs1 [Duloxetine]
- LPS % cell toxicity (primary rat microglia [1]; rat): 0%
- inhibition at 10 µM ([2]; Rattus norvegicus, Microglia): 24%
- Fibrin % cell toxicity (primary rat microglia [3]; rat): 0%
- inhibition at 10 µM ([4]; Rattus norvegicus, Microglia): 22%
- Quadrant (FIG. 5b) [5]: Q4

Structure (SMILES): CCC(=O)OCC(=O)[C@@]1(OC(=O)CC)[C@@H](C)C[C@H]2[C@@H]3CCC4=CC(=O)C=C[C@]4(C)[C@@]3(F)[C@@H](O)C[C@@]21C [Betamethasone 17,21-dipropionate]
- LPS % cell toxicity (primary rat microglia [1]): 0%
- LPS % inhibition ([2]; primary HTS, 10 μM, LPS-stimulated primary microglia): 29%
- Fibrin % cell toxicity (primary rat microglia [3]): 1%
- Fibrin % inhibition ([4]; primary HTS, 10 μM, fibrin-stimulated primary microglia): 21%
- Quadrant (FIG. 5b) ([5]; primary HTS, 10 μM): Q4

Structure (SMILES): CNCCCN1c2ccccc2CCc2ccccc21 [Desipramine hydrochloride, reference compound]
- LPS % cell toxicity (primary rat microglia [1]; rat): 4%
- inhibition at 10 µM [2, 6]: 83%
- IC50 ([2]; Rattus norvegicus, Microglia, Table 7, read-out: LPS_IC50): 2 nM
- Fibrin % cell toxicity (primary rat microglia [3]; rat): 1%
- IC50 ([4]; Rattus norvegicus, Microglia, Table 7, read-out: fib_IC50): 1620 nM
- inhibition at 10 µM [4, 7]: -2%
- Activity [5]: fib/LPS
- Quadrant (FIG. 5b) ([5]; Table 2, screen at 10 μM): Q1
- Quadrant (FIG. 5b) [5, 8]: Q1

Structure (SMILES): CNNCc1ccc(C(=O)NC(C)C)cc1 [Procarbazine]
- LPS % cell toxicity (primary rat microglia [1]; rat): 0%
- inhibition at 10 µM [2, 9]: 9%
- Fibrin % cell toxicity (primary rat microglia [3]; rat): 1%
- inhibition at 10 µM [4, 10]: -21%
- Quadrant (FIG. 5b) [5, 11]: Q4

Structure (SMILES): CC(=O)O[C@H]1C(=O)[C@@]2(C)[C@H]([C@H](OC(=O)c3ccccc3)[C@]3(O)C[C@H](OC(=O)[C@H](O)[C@@H](NC(=O)c4ccccc4)c4ccccc4)C(C)=C1C3(C)C)[C@]1(OC(C)=O)CO[C@@H]1C[C@@H]2O [Taxol, Paclitaxel]
- LPS % cell toxicity (primary rat microglia [1]): 1%
- LPS % inhibition ([2]; primary microglia HTS, 10 μM, LPS-stimulated, cell size >800 μm^2 as marker of activation): 19%
- Fibrin % cell toxicity (primary rat microglia [3]): 1%
- Fibrin % inhibition ([4]; primary microglia HTS, 10 μM, fibrin-stimulated, cell size >800 μm^2 as marker of activation): 45%
- Quadrant (FIG. 5b) [5, 12]: Q4

Structure (SMILES): CC(C)NCC(O)c1ccc2ccccc2c1 (stereo not shown) [Pronetalol Hydrochloride]
- LPS % cell toxicity (primary rat microglia [1]; rat): 0%
- inhibition at 10 µM [2, 9]: 10%
- Fibrin % cell toxicity (primary rat microglia [3]; rat): 1%
- inhibition at 10 µM [4, 10]: -12%
- Quadrant (FIG. 5b) [5, 11]: Q4

Structure (SMILES): N[C@@H]1C[C@H]1c1ccccc1 (racemic) [Tranylcypromine]
- LPS % cell toxicity (primary rat microglia [1]): 0%
- LPS % inhibition ([2]; 10 µM): −5%
- Fibrin % cell toxicity (primary rat microglia [3]): 1%
- Fibrin % inhibition ([4]; 10 µM): 5%
- Quadrant (FIG. 5b) [5]: Q4

Structure (SMILES): CC(C)(C(=O)c1cccnc1)c1cccnc1 [Metyrapone]
- LPS % cell toxicity (primary rat microglia [1]; rat): 0%
- inhibition at 10 µM [2, 6]: 39%
- Fibrin % cell toxicity (primary rat microglia [3]; rat): 1%
- inhibition at 10 µM [4, 7]: -60%
- Quadrant (FIG. 5b) [5, 8]: Q4

Structure (SMILES): CC[C@]1(O)C[C@H]2CN(CCc3c([nH]c4ccccc34)[C@@](C(=O)OC)(c3cc4c(cc3OC)N(C=O)[C@H]3[C@@](O)(C(=O)OC)[C@H](OC(C)=O)[C@]5(CC)C=CCN6CC[C@]43[C@@H]65)C2)C1 [Vincristine]
- LPS % cell toxicity (primary rat microglia [1]; rat): 10%
- inhibition at 10 µM [2, 13]: 104%
- Fibrin % cell toxicity (primary rat microglia [3]; rat): 33%
- inhibition at 10 µM [4, 14]: 105%
- Quadrant (FIG. 5b) [5, 15]: Q2

Structure (SMILES): O=C1CCC(N2C(=O)c3ccccc3C2=O)C(=O)N1 (stereo not shown) [Thalidomide]
- LPS % cell toxicity (primary rat microglia [1]; rat): 1%
- inhibition at 10 µM ([2]; Rattus norvegicus, Microglia, primary microglia HTS, 10 μM, LPS-stimulated, cell size >800 μm^2 as marker of activation): 23%
- Fibrin % cell toxicity (primary rat microglia [3]; rat): 0%
- inhibition at 10 µM ([4]; Rattus norvegicus, Microglia, primary microglia HTS, 10 μM, fibrin-stimulated, cell size >800 μm^2 as marker of activation): 8%
- Quadrant (FIG. 5b) [5, 12]: Q4

Structure (SMILES): COP(=O)(OC)OC=C(Cl)Cl [Dichlorvos]
- LPS % cell toxicity (primary rat microglia [1]; rat): 1%
- inhibition at 10 µM [2, 13]: 19%
- Fibrin % cell toxicity (primary rat microglia [3]; rat): 1%
- inhibition at 10 µM [4, 14]: -1%
- Quadrant (FIG. 5b) ([5]; classification by fibrin and LPS inhibition, HTS at 10 μM): Q4

Structure (SMILES): OCCc1ccccc1 [2-Phenyl-Ethanol]
- LPS % cell toxicity (primary rat microglia [1]; rat): 0%
- inhibition at 10 µM [2, 13]: 15%
- Fibrin % cell toxicity (primary rat microglia [3]; rat): 1%
- inhibition at 10 µM [4, 14]: -6%
- Quadrant (FIG. 5b) [5, 15]: Q4

Structure (SMILES): CN(C)C(=S)SSC(=S)N(C)C [Thiram]
- LPS % cell toxicity (primary rat microglia [1]; rat): 64%
- inhibition at 10 µM [2, 13]: 126%
- Fibrin % cell toxicity (primary rat microglia [3]; rat): 91%
- inhibition at 10 µM [4, 14]: 109%
- Quadrant (FIG. 5b) [5, 15]: Q2

Structure (SMILES): CC[C@]1(O)C[C@H]2CN(CCc3c([nH]c4ccccc34)[C@@](C(=O)OC)(c3cc4c(cc3OC)N(C=O)[C@H]3[C@@](O)(C(=O)OC)[C@H](OC(C)=O)[C@]5(CC)C=CCN6CC[C@]43[C@@H]65)C2)C1 [Vincristine Sulfate]
- LPS % cell toxicity (primary rat microglia [1]; rat): 7%
- LPS % inhibition ([2]; primary microglia HTS, LPS stimulation, compounds at 10 μM, 10 µM): 119%
- Fibrin % cell toxicity (primary rat microglia [3]; rat): 16%
- Fibrin % inhibition ([4]; primary microglia HTS, fibrin stimulation, compounds at 10 μM, 10 µM): 108%
- Quadrant (FIG. 5b) [5, 15]: Q2

Structure (SMILES): CN(C)CCC=C1c2ccccc2CCc2ccccc21 [Amitriptyline]
- LPS % cell toxicity (primary rat microglia [1]; rat): 1%
- inhibition at 10 µM ([2]; Rattus norvegicus, Microglia): 30%
- Fibrin % cell toxicity (primary rat microglia [3]; rat): 1%
- inhibition at 10 µM ([4]; Rattus norvegicus, Microglia): 14%
- Quadrant (FIG. 5b) [5]: Q4
